Broadly, the EC50 is the midpoint of the concentration-response curve. Read a low EC50 as higher potency in that assay. Usually IC50 stands for the concentration that gives 50% inhibition.

The record followed here is patent US11912737B2, “19-nor neuroactive steroids and methods of use thereof” (Sage Therapeutics, Inc., priority 2013, dated 2024).

The target of one assay is α1β2γ2 GABAA receptor (Homo sapiens (Human), UniProt P14867+P47870).
Experiment: not given
Conditions: not given
Compound `C[C@@H]1CN(CC(=O)[C@H]2CC[C@H]3[C@@H]4CC[C@@H]5C[C@](C)(O)CC[C@@H]5[C@H]4CC[C@]23C)CCO1` [Entry 2] registered a concentration for a half-maximal effect (EC50) of 1 to 2 µM.

The same assay, now with this note: LTK, read-out: GABA (α1β2γ2) Qpatch in Ltk, % efficacy at 10 μM, Qpatch, Ltk cells, 10 μM compound, 2 μM GABA.
Turning to `C[C@@H]1CN(CC(=O)[C@H]2CC[C@H]3[C@@H]4CC[C@@H]5C[C@](C)(O)CC[C@@H]5[C@H]4CC[C@]23C)CCO1` [Entry 6], the Emax at 10 µM was 100 to 500%.
Still for that read-out and setting: in the case of `COC[C@@]1(O)CC[C@H]2[C@@H](CC[C@@H]3[C@@H]2CC[C@]2(C)[C@@H](C(=O)CN4CCOCC4)CC[C@@H]32)C1` [Entry 50] it was 10 to 100%; in that of `CC(=O)N1CCN(CC(=O)[C@H]2CC[C@H]3[C@@H]4CC[C@H]5C[C@](C)(O)CC[C@@H]5[C@H]4CC[C@]23C)CC1` [Entry 10], 100 to 500%.
Same read-out and setting: in the case of `C[C@]12CC[C@H]3[C@@H](CC[C@@H]4C[C@@](O)(CF)CC[C@@H]43)[C@@H]1CC[C@@H]2C(=O)CN1CCOCC1` [Entry 55] it was 10 to 100%.
Same read-out and setting: in the case of `CC(=O)N1CCN(CC(=O)[C@H]2CC[C@H]3[C@@H]4CC[C@H]5C[C@](C)(O)[C@H](C)C[C@@H]5[C@H]4CC[C@]23C)CC1` [Entry 26] it was 100 to 500%; in that of `C[C@@H]1C[C@H]2[C@@H](CC[C@@H]3[C@@H]2CC[C@]2(C)[C@@H](C(=O)CN4CCOCC4)CC[C@@H]32)C[C@]1(C)O` [Entry 47], 10 to 100%; in that of `CC[C@@]1(O)CC[C@H]2[C@H](CC[C@@H]3[C@@H]2CC[C@]2(C)[C@@H](C(=O)CN4CCN(S(C)(=O)=O)CC4)CC[C@@H]32)C1` [Entry 34], 100 to 500%.
For `C[C@]12CC[C@H]3[C@@H](CC[C@@H]4C[C@@](O)(CF)CC[C@@H]43)[C@@H]1CC[C@@H]2C(=O)CN1CCN(S(C)(=O)=O)CC1` [Entry 32], the Emax at 10 µM is more than 500%.
Take `CC(=O)N1CCN(CC(=O)[C@H]2CC[C@H]3[C@@H]4CC[C@@H]5C[C@](C)(O)CC[C@@H]5[C@H]4CC[C@]23C)CC1` [Entry 17]: the Emax at 10 µM fell in the range of 100 to 500%.
The same measure, in the same setting: the result for `C[C@@H]1COCCN1CC(=O)[C@H]1CC[C@H]2[C@@H]3CC[C@@H]4C[C@](C)(O)CC[C@@H]4[C@H]3CC[C@]12C` [Entry 7] reads 100 to 500%; that for `C[C@@]1(O)CC[C@H]2[C@H](CC[C@@H]3[C@@H]2CC[C@]2(C)[C@@H](C(=O)CN4CCCOCC4)CC[C@@H]32)C1` [Entry 58], more than 500%.

Still in this assay, the particulars now being: LTK, read-out: GABAa alpha1 (α1β2γ2) Emax (%), potentiation of GABA EC20 (2 μM) current.
Take `C[C@@H]1CN(CC(=O)[C@H]2CC[C@H]3[C@@H]4CC[C@@H]5C[C@](C)(O)CC[C@@H]5[C@H]4CC[C@]23C)CCO1` [Entry 2]: the Emax fell in the range of 0 to 500%.

Another assay addresses [35S]-TBPS binding, rat brain cortical membranes. Briefly: Steroid inhibition of [35S]-TBPS binding. The settings on record: 3 nM [35S]-TBPS, in the presence of 5 μM GABA. On the procedure: Steroid Inhibition of TBPS Binding
[35S]-t-Butylbicylophorothionate (TBPS) binding assays using rat brain cortical membranes in the presence of 5 μM GABA has been described (Gee et al, J. Pharmacol. Exp. Ther. 1987, 241, 346-353; Hawkinson et al, Mol. Pharmacol. 1994, 46, 977-985; Lewin, A. H et al., Mol. Pharmacol. 1989, 35, 189-194).
Briefly, cortices are rapidly removed following decapitation of carbon dioxide-anesthetized Sprague-Dawley rats (200-250 g). The cortices are homogenized in 10 volumes of ice-cold 0.32 M sucrose using a glass/teflon homogenizer and centrifuged at 1500×g for 10 min at 4° C. The resultant supernatants are centrifuged at 10,000×g for 20 min at 4° C. to obtain the P2 pellets. The P2 pellets are resuspended in 200 mM NaCl/50 mM Na—K phosphate pH 7.4 buffer and centrifuged at 10,000×g for 10 min at 4° C. This washing procedure is repeated twice and the pellets are resuspended in 10 volumes of buffer. Aliquots (100 μL) of the membrane suspensions are incubated with 3 nM [^35S]-TBPS and 5 μL aliquots of test drug dissolved in dimethyl sulfoxide (DMSO) (final 0.5%) in the presence of 5 μM GABA. The incubation is brought to a final volume of 1.0 mL with buffer. Nonspecific binding is determined in the presence of 2 μM unlabeled TBPS and ranged from 15 to 25%. Following a 90 min incubation at room temp, the assays are terminated by filtration through glass fiber filters (Schleicher and Schuell No. 32) using a cell harvester (Brandel) and rinsed three times with ice-cold buffer. Filter bound radioactivity is measured by liquid scintillation spectrometry. Non-linear curve fitting of the overall data for each drug averaged for each concentration is done using Prism (GraphPad).
Various compounds are or can be screened to determine their potential as modulators of [^355]-TBPS binding in vitro. These assays are or can be performed in accordance with the above discussed procedures.
`C[C@@H]1C[C@H]2[C@@H](CC[C@@H]3[C@@H]2CC[C@]2(C)[C@@H](C(=O)CN4CCOCC4)CC[C@@H]32)C[C@]1(C)O` [Entry 39]: the IC50 was 0.1 to 0.5 µM.
In the case of `CC(=O)N1CCN(CC(=O)[C@H]2CC[C@H]3[C@@H]4CC[C@H]5C[C@](C)(O)[C@@H](C)C[C@@H]5[C@H]4CC[C@]23C)CC1` [Entry 21], the IC50 is 0.1 to 0.5 µM.
On the same count and under the same terms, the result for `C[C@@]1(O)CC[C@H]2[C@@H](CC[C@@H]3[C@@H]2CC[C@]2(C)[C@@H](C(=O)CN4CCCC(O)C4)CC[C@@H]32)C1` (some centres unmarked) [Entry 15] reads not below 0.5 µM; that for `C[C@H]1C[C@H]2[C@@H](CC[C@@H]3[C@@H]2CC[C@]2(C)[C@@H](C(=O)CN4CCOCC4)CC[C@@H]32)C[C@]1(C)O` [Entry 18], 0.1 to 0.5 µM.
Same read-out and setting: the result for `C[C@@]1(O)CC[C@H]2[C@@H](CC[C@@H]3[C@@H]2CC[C@]2(C)[C@@H](C(=O)CN4CCNCC4)CC[C@@H]32)C1` [Entry 24] reads not below 0.5 µM; that for `COC[C@@]1(O)CC[C@H]2[C@H](CC[C@@H]3[C@@H]2CC[C@]2(C)[C@@H](C(=O)CN4CCOCC4)CC[C@@H]32)C1` [Entry 43], not below 0.5 µM; that for `C[C@]12CC[C@H]3[C@@H](CC[C@@H]4C[C@@](O)(C(F)F)CC[C@@H]43)[C@@H]1CC[C@@H]2C(=O)CN1CCOCC1` [Entry 40], not below 0.5 µM.
Regarding `C[C@@]1(O)CC[C@H]2[C@@H](CC[C@@H]3[C@@H]2CC[C@]2(C)[C@@H](C(=O)CN4CCC(O)CC4)CC[C@@H]32)C1` [Entry 12], the IC50 was not below 0.5 µM.
On the same count and under the same terms, the result for `C[C@@H]1CCCCN1CC(=O)[C@H]1CC[C@H]2[C@@H]3CC[C@@H]4C[C@](C)(O)CC[C@@H]4[C@H]3CC[C@]12C` [Entry 37] reads 0.1 to 0.5 µM; that for `C[C@]12CC[C@H]3[C@@H](CC[C@H]4C[C@@](O)(CF)CC[C@@H]43)[C@@H]1CC[C@@H]2C(=O)CN1CCOCC1` [Entry 48], not below 0.5 µM.
Still for that read-out and setting: the result for `C[C@@]1(O)CC[C@@H]2[C@H]3CC[C@]4(C)[C@@H](C(=O)CN5CCOCC5)CC[C@H]4[C@@H]3C[C@@H](F)[C@@H]2C1` [Entry 44] reads not below 0.5 µM.
Still for that read-out and setting: in the case of `C[C@@]1(O)CC[C@H]2[C@H](CC[C@@H]3[C@@H]2CC[C@]2(C)[C@@H](C(=O)CN4CC(O)C4)CC[C@@H]32)C1` [Entry 5] it was not below 0.5 µM; in that of `C[C@@H]1COCCN1CC(=O)[C@H]1CC[C@H]2[C@@H]3CC[C@@H]4C[C@](C)(O)CC[C@@H]4[C@H]3CC[C@]12C` [Entry 11], 0.1 to 0.5 µM.
In the case of `COC[C@@]1(O)CC[C@H]2[C@H](CC[C@@H]3[C@@H]2CC[C@]2(C)[C@@H](C(=O)CN4CCN(S(C)(=O)=O)CC4)CC[C@@H]32)C1` [Entry 22], the IC50 was in the range of 0.1 to 0.5 µM.
On the same count and under the same terms, the result for `COC[C@@]1(O)CC[C@H]2[C@@H](CC[C@@H]3[C@@H]2CC[C@]2(C)[C@@H](C(=O)CN4CCN(S(C)(=O)=O)CC4)CC[C@@H]32)C1` [Entry 52] reads 0.1 to 0.5 µM.
The same measure, in the same setting: in the case of `C[C@]12CC[C@H]3[C@@H](CC[C@@H]4C[C@@](O)(CF)CC[C@@H]43)[C@@H]1CC[C@@H]2C(=O)CN1CCOCC1` [Entry 46] it was not below 0.5 µM; in that of `C[C@@H]1C[C@H]2[C@@H](CC[C@@H]3[C@@H]2CC[C@]2(C)[C@@H](C(=O)CN4CCN(S(C)(=O)=O)CC4)CC[C@@H]32)C[C@]1(C)O` [Entry 25], 0.05 to 0.1 µM; in that of `CO[C@H]1C[C@H]2[C@@H](CC[C@@H]3[C@@H]2CC[C@]2(C)[C@@H](C(=O)CN4CCOCC4)CC[C@@H]32)C[C@]1(C)O` [Entry 41], not below 0.5 µM.
Same read-out and setting: the result for `CC(=O)N1CCN(CC(=O)[C@H]2CC[C@H]3[C@@H]4CC[C@H]5C[C@](C)(O)CC[C@@H]5[C@H]4CC[C@]23C)CC1` [Entry 13] reads 0.1 to 0.5 µM; that for `C[C@@]1(O)CC[C@H]2[C@H](CC[C@@H]3[C@@H]2CC[C@]2(C)[C@@H](C(=O)CN4CCNCC4)CC[C@@H]32)C1` [Entry 51], 0.1 to 0.5 µM; that for `C[C@@]1(O)CC[C@H]2[C@H](CC[C@@H]3[C@@H]2CC[C@]2(C)[C@@H](C(=O)CN4CCCOCC4)CC[C@@H]32)C1` [Entry 53], 0.1 to 0.5 µM.
Consider `C[C@@]1(O)CC[C@H]2[C@H](CC[C@@H]3[C@@H]2CC[C@]2(C)[C@@H](C(=O)CN4CCNCC4)CC[C@@H]32)C1` [Entry 23], for which the half-maximal inhibitory concentration (IC50) was not below 0.5 µM.
On the same count and under the same terms, in the case of `COC[C@@]1(O)CC[C@H]2[C@@H](CC[C@@H]3[C@@H]2CC[C@]2(C)[C@@H](C(=O)CN4CCOCC4)CC[C@@H]32)C1` [Entry 42] it was not below 0.5 µM; in that of `C[C@H]1CN(CC(=O)[C@H]2CC[C@H]3[C@@H]4CC[C@@H]5C[C@](C)(O)CC[C@@H]5[C@H]4CC[C@]23C)C[C@H](C)O1` [Entry 31], 0.01 to 0.05 µM; in that of `CC(=O)N1CCN(CC(=O)[C@H]2CC[C@H]3[C@@H]4CC[C@H]5C[C@](C)(O)[C@H](C)C[C@@H]5[C@H]4CC[C@]23C)CC1` [Entry 20], 0.1 to 0.5 µM.
The same measure, in the same setting: in the case of `CC[C@@]1(O)CC[C@H]2[C@@H](CC[C@@H]3[C@@H]2CC[C@]2(C)[C@@H](C(=O)CN4CCOCC4)CC[C@@H]32)C1` [Entry 49] it was not below 0.5 µM; in that of `CC[C@@]1(O)CC[C@H]2[C@@H](CC[C@@H]3[C@@H]2CC[C@]2(C)[C@@H](C(=O)CN4CCN(S(C)(=O)=O)CC4)CC[C@@H]32)C1` [Entry 33], 0.1 to 0.5 µM; in that of `C[C@@]1(O)CC[C@@H]2[C@H]3CC[C@]4(C)[C@@H](C(=O)CN5CCOCC5)CC[C@H]4[C@@H]3C[C@@H](F)[C@H]2C1` [Entry 38], not below 0.5 µM.
